Data from paper PMC11239671, “GolpHCat (TMEM87A), a unique voltage-dependent cation channel in Golgi apparatus, contributes to Golgi-pH maintenance and hippocampus-dependent memory” (Nature Communications, 2024).
Where a chain is given by its changes, count along the chain named.

Assays:
TMEM87A (GolpHCat) [1] = biological target: T1, TMEM87A (GolpHCat) (Homo sapiens, UniProt Q8NBN3); assay: cryo-EM structure at […] Å; co-purified lipid, assigned from density shape and Golgi lipid composition; format: binding; design: full-length hTMEM87A, M1-E555; modelled D38-P473
T1 sequence (Q8NBN3 1-555): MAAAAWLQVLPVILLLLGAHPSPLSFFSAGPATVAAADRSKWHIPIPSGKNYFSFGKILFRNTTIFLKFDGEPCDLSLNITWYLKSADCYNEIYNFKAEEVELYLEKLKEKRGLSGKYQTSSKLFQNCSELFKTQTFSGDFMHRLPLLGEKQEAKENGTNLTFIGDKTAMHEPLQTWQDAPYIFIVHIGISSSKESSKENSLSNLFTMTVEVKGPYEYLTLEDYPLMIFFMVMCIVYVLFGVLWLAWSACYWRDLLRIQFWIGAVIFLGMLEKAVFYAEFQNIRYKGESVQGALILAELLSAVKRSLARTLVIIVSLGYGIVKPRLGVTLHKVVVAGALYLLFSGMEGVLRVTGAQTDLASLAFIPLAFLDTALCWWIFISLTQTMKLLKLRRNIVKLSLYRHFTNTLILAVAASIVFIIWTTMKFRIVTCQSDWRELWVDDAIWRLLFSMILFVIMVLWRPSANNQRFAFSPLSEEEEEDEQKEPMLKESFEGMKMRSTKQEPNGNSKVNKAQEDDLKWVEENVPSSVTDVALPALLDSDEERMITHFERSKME

TMEM87A (GolpHCat) [2] = biological target: T2, TMEM87A (GolpHCat) (Homo sapiens, UniProt Q8NBN3, A308M); assay: cryo-EM structure at ~[…] Å; co-purified lipid density; format: binding
T2 construct: full-length hTMEM87A, M1-E555
T2 sequence (Q8NBN3 1-555 A308M): T1 sequence (Q8NBN3 1-555) with A308M

TMEM87A (GolpHCat) [3] = biological target: T1, TMEM87A (GolpHCat); assay: cryo-EM structure at ~[…] Å with […] sodium gluconate; IC50 from whole-cell patch clamp in CHO-K1 cells; format: cell-based; design: full-length hTMEM87A, M1-E555 (isoform 1, NP_056312.2), EGFP-Twin-strep tag

Structure (SMILES) | cryo-EM structure at 3.1 Å; co-purified lipid, assigned from density shape and G (TMEM87A (GolpHCat) [1]) | cryo-EM structure at ~3.1 Å; co-purified lipid density (TMEM87A (GolpHCat) [2]) | IC50 (TMEM87A (GolpHCat) [3])
CCCCCCCC/C=C\CCCCCCCC(=O)O[C@H](COC(=O)CCCCCCCCCCCCCCC)COP(=O)(O)OCCN [PE, 1-palmitoyl-2-oleoyl-sn-glycerol-3-phosphoethanolamine] | PE was co-purified with hTMEM87A, suggesting that PE tightly and stably binds to TMEM87A | the PE density in hTMEM87A A308M was displaced to a position similar to that of the S6 state | 
O=C(O)[C@H](O)[C@@H](O)[C@H](O)[C@H](O)CO [gluconate] |  |  | 100 nM
